Data from patent publication US20010007866A1, “TREATMENT OF PRURITUS WITH VITAMIN D AND ANALOGS THEREOF” (priority 1995, published 2001).
Where “and” joins values, the source holds several entries; their conditions need not be identical. Equal entries are not always repeated.

Key:
pruritus of sunburn = test: Topical application to pruritus of sunburn (subject two); assay type: in vivo, human
Procedure: A corn oil solution of vitamin D3 was prepared by adding 1 gram of vitamin D3 to 20 ml corn oil with mixing for approximately 1 hour followed by brief heating to approximately 45° C. until dissolved. One ml of this solution was mixed with 47 ml corn oil and 2 ml isopropyl myristate to obtain a final concentration of vitamin D3 of 1000 μg/ml.
Subject two developed a sunburn on the back and experienced severe pruritus. […] The pruritus abated completely about one-half hour after these applications.

[1] = system: pruritus caused by poison ivy; test: Topical application to poison ivy rash, pruritic score on 100 mm visual analog scale (subject one); assay type: in vivo, human
Procedure: Testing Procedure: Subject one contracted poison ivy rash and tested the various preparations above. Preparations were evaluated by the subject after application to an area of rash approximately 1-10 square centimeters. Comparisons were made of antipruritic effect by marking on a 100 mm visual analog scale consisting of a plain line with the left end labeled “None” and the right end labeled “Maximal”. The subject was instructed to mark the scale at a point which they felt corresponded to the level of itchiness that they were feeling at the treatment site at the appropriate time. The samples were coded so that the subject was not aware of what a given sample was and they were not told if they were expected to have an effect. They carried out the evaluation unaided, applying the samples in any order they chose except where side-by-side comparisons were made as indicated in the tables. From the marked scale the pruritic score was determined as the number of mm from the left side of the scale to the subject's mark. Thus a higher value indicates a high level or pruritus and a low value indicates a low level to no pruritus.
The patient and test procedures were as described in example 3. The results of tests using oil-based formulations are in tables 2a through 2c.
The patient and test procedures were as described in example 3. The results of tests using oil-based formulations are in Table 3.
Serial dilutions of Vita Moist Cream were made from an initial 5 ml quantity of Vita Moist Cream by adding successive 5 ml quantities of the diluent, Care Deeply Cream, to the starting formulation and subsequent 5 ml aliquots of successive dilutions as follows:
After coding with numbers 1-6 as above, the preparations were randomly sorted and again coded […] and tested two at a time in alphabetical order. […] The minimal effective concentration in this formulation appears to be between 1.25 and 2.5 μg/ml.

C=C1CC[C@H](O)C/C1=C/C=C1\CCC[C@]2(C)[C@@H]([C@H](C)CCCC(C)C)CC[C@@H]12 [Vitamin D3, cholecalciferol]
antipruritic effect (in words) (pruritus of sunburn; 1000 μg/ml in corn oil): immediately and completely alleviated
time until the pruritus returned (pruritus of sunburn; after 1000 μg/ml in corn oil): one and one-half
antipruritic effect (in words, no scores recorded) ([1]; 869 μg/ml in Eucerin lotion, compared with Eucerin plus corn oil control): stopped the pruritus instantly and completely
antipruritic effect (in words) ([1]; Keri lotion as vehicle, Table 1b): rapid and complete antipruritic effect
pruritic score (100 mm visual analog scale) ([1]; Keri lotion with added isopropyl myristate, 52 μg/ml, time 0 min): 77 mm
pruritic score (100 mm visual analog scale) ([1]; Keri lotion with added isopropyl myristate, 52 μg/ml, time 1 min): 35 mm
pruritic score (100 mm visual analog scale) ([1]; Keri lotion with added isopropyl myristate, 52 μg/ml, time 5 min): 0 mm
pruritic score (100 mm visual analog scale) ([1]; Keri lotion with added isopropyl myristate, 52 μg/ml, time 10 min): 0 mm
pruritic score (100 mm visual analog scale) ([1]; Keri lotion with added isopropyl myristate, 502 μg/ml, time 0 min): 80 mm
pruritic score (100 mm visual analog scale) ([1]; Keri lotion with added isopropyl myristate, 502 μg/ml, time 1 min): 0 mm
pruritic score (100 mm visual analog scale) ([1]; Keri lotion with added isopropyl myristate, 502 μg/ml, time 5 min): 0 mm
pruritic score (100 mm visual analog scale) ([1]; Keri lotion with added isopropyl myristate, 502 μg/ml, time 10 min): 0 mm
pruritic score (100 mm visual analog scale) ([1]; Keri lotion with added isopropyl myristate, 869 μg/ml, time 0 min): 82 mm
pruritic score (100 mm visual analog scale) ([1]; Keri lotion with added isopropyl myristate, 869 μg/ml, time 1 min): 0 mm
pruritic score (100 mm visual analog scale) ([1]; Keri lotion with added isopropyl myristate, 869 μg/ml, time 5 min): 0 mm
pruritic score (100 mm visual analog scale) ([1]; Keri lotion with added isopropyl myristate, 869 μg/ml, time 10 min): 0 mm
pruritic score (100 mm visual analog scale) ([1]; Keri lotion, 10 μg/ml, no isopropyl myristate, time 0 min, single tests): 78 mm and 80 mm
pruritic score (100 mm visual analog scale) ([1]; Keri lotion, 10 μg/ml, no isopropyl myristate, time 1 min, single tests): 0 mm
pruritic score (100 mm visual analog scale) ([1]; Keri lotion, 10 μg/ml, no isopropyl myristate, time 5 min, single tests): 0 mm
pruritic score (100 mm visual analog scale) ([1]; Keri lotion, 10 μg/ml, no isopropyl myristate, time 10 min, single tests): 0 mm
pruritic score (100 mm visual analog scale) ([1]; Keri lotion, 10 μg/ml, with isopropyl myristate, time 0 min, single tests): 80 mm and 77 mm
pruritic score (100 mm visual analog scale) ([1]; Keri lotion, 10 μg/ml, with isopropyl myristate, time 5 min, single tests): 0 mm
pruritic score (100 mm visual analog scale) ([1]; Keri lotion, 10 μg/ml, with isopropyl myristate, time 10 min, single tests): 0 mm
pruritic score, Mean ([1]; Keri lotion, 10 μg/ml, mean of four tests (with and without isopropyl myristate), time 0 min): 79 mm
pruritic score, Mean ([1]; Keri lotion, 10 μg/ml, mean of four tests (with and without isopropyl myristate), time 1 min): 0 mm
pruritic score, Mean ([1]; Keri lotion, 10 μg/ml, mean of four tests (with and without isopropyl myristate), time 5 min): 0 mm
pruritic score, Mean ([1]; Keri lotion, 10 μg/ml, mean of four tests (with and without isopropyl myristate), time 10 min): 0 mm
pruritic score (100 mm visual analog scale) ([1]; Keri lotion, 521 μg/ml, no isopropyl myristate, time 0 min): 80 mm
pruritic score (100 mm visual analog scale) ([1]; Keri lotion, 521 μg/ml, no isopropyl myristate, time 1 min): 81 mm
pruritic score (100 mm visual analog scale) ([1]; Keri lotion, 521 μg/ml, no isopropyl myristate, time 5 min): 0 mm
pruritic score (100 mm visual analog scale) ([1]; Keri lotion, 521 μg/ml, no isopropyl myristate, time 10 min): 0 mm
antipruritic effect (in words) ([1]; Keri lotion, concentrations from 10 through 869 μg/ml, Table 1c): effective in rapidly and effectively relieving pruritus
antipruritic effect (in words) ([1]; Vita Moist Cream diluted with Care Deeply Cream, 1.25 μg/ml and 0.5 μg/ml): some antipruritic effect but the effect was not complete nor was it rapid and sustained
antipruritic effect (in words) ([1]; Vita Moist Cream diluted with Care Deeply Cream, 2.5 and 5 μg/ml): rapid and complete alleviation of pruritus
antipruritic effect (in words) ([1]; corn oil vehicle, 1000 μg/ml, mean of two tests compared to vehicle control): no detectable antipruritic effect
pruritic score, Mean ([1]; corn oil, 1000 μg/ml, mean of two tests, time 0 min): 81 mm
pruritic score, Mean ([1]; corn oil, 1000 μg/ml, mean of two tests, time 1 min): 81 mm
pruritic score, Mean ([1]; corn oil, 1000 μg/ml, mean of two tests, time 5 min): 70 mm
pruritic score, Mean ([1]; corn oil, 1000 μg/ml, mean of two tests, time 10 min): 59 mm
pruritic score (100 mm visual analog scale) ([1]; corn oil, 1000 μg/ml, time 0 min, tests 1 and 2): 80 mm and 81 mm
pruritic score (100 mm visual analog scale) ([1]; corn oil, 1000 μg/ml, time 1 min, tests 1 and 2): 80 mm and 81 mm
pruritic score (100 mm visual analog scale) ([1]; corn oil, 1000 μg/ml, time 5 min, tests 1 and 2): 81 mm and 58 mm
pruritic score (100 mm visual analog scale) ([1]; corn oil, 1000 μg/ml, time 10 min, tests 1 and 2): 60 mm and 58 mm
lowest concentration found to have an anti-pruritic effect ([1]; non-aqueous vehicle): 521 µg/mL
antipruritic effect (in words) ([1]; petroleum jelly vehicle, 521 μg/ml): an antipruritic effect
pruritic score (100 mm visual analog scale) ([1]; petroleum jelly, 521 μg/ml, time 0 min): 72 mm
pruritic score (100 mm visual analog scale) ([1]; petroleum jelly, 521 μg/ml, time 1 min): 11 mm
pruritic score (100 mm visual analog scale) ([1]; petroleum jelly, 521 μg/ml, time 5 min): 10 mm
pruritic score (100 mm visual analog scale) ([1]; petroleum jelly, 521 μg/ml, time 10 min): 9 mm
effective concentration ([1]; suspension of water and a dispersed phase): 12.5 µg/mL
lowest effective concentration ([1]; water-based emulsion formulation): 2.5 µg/mL
